Several values for one entry are separate records, joined by “and”; a condition that tells them apart may be missing. Equal entries are not always repeated. Each block holds one compound with its values, some of them ahead of it.
Test system: 328373-195-R-J1-PDC complex spheroids, viability % test/control
Assay: Anticancer human tumor 328373-195-R-J1-PDC patient-derived head and neck squamous carcinoma cell line growth inhibition [CLK]
Settings: for viability, T/C: stronger effect = lower value
From the text: A high-throughput screen of multi-cell type tumor spheroids was designed to identify active combinations of […] and targeted small molecules. Complex spheroids include a stromal component modeled by human endothelial cells (HUVEC) and fibroblasts modeled by human mesenchymal stem cells (MSCs). The concentration ranges selected for each drug and investigational agent were based upon clinically achievable concentrations if the clinical Cmax of the agent was known.
Compounds. The drugs and investigational agents: cirtuvivint (SM08502; NSC835563), CC-671 (NSC850746), vemurafenib (NSC761431), tapotoclax (NSC804041), sotorasib (NSC818433), adagrasib (NSC831453), MRTX-1133 (NSC836407), BAY2416964 (NSC825713), copanlisib (NSC816437), inavolisib (NSC800729), abemaciclib (NSC768073), osimertinib (NSC779217), entinostat (NSC756642), eltanexor (KPT-8602, NSC794443), venetoclax (NSC766270), ceralasertib (NSC777638), bortezomib (NSC756655), olaparib (NSC753686), talazoparib (NSC767125), alisertib (NSC759677), peposertib (NSC802822), gemcitabine (NSC613327), 5-fluorouracil (NSC19893), SN-38 (NSC673596), oxaliplatin (NSC266046), paclitaxel (NSC125973), and doxorubicin (NSC123127), were obtained from the National Cancer Institute (NCI) Developmental Therapeutics Program Chemical Repository. The FDA-approved anticancer drug set is available from the Developmental Therapeutics Program at https://dtp.cancer.gov/organization/dscb/obtaining/available plates.htm. […] The stock solutions were prepared in dimethyl sulfoxide (DMSO, Sigma-Aldrich, St. Louis, MO, cat. D2650), except for the platinum complexes which were prepared in saline (Quality Biological, Gaithersburg, MD, cat. 114-055-101), at 800-fold the tested concentration and stored at -70 degrees C prior to their use. All drugs and investigational agents were tested over a range starting from a high concentration at or near the clinical Cmax and decreasing in half-log increments. If the clinical Cmax for an agent had not been determined, the highest concentration tested was 10 microM.
Cell Culture. All cells were maintained in an incubator at 37 degrees C and 5% CO2 with 95% humidity. The PDC lines were cultured according to standard operating procedures established by the NCI PDMR. Briefly, all PDCs were thawed and cultured in Matrigel-coated flasks prepared with a working solution of 1X Ham's F-12 nutrient mix, without supplementation (Invitrogen, Waltham, MA, cat. 11765054), 100 U/mL penicillin-streptomycin (Invitrogen, cat. 15140122), and 2.5% Matrigel (Corning Inc., Corning, NY, cat. 354248) for the first three passages. The 947758-054-R-J2-PDC line was cultured in 6B/Colon 1A media, which includes advanced DMEM/F-12 (Thermo Fisher Scientific, cat. 12634028), 10 mM HEPES (Thermo Fisher Scientific, cat. 15630080), 1X GlutaMAX supplement (Thermo Fisher Scientific, cat. 35050061), 0.1 mg/mL primocin (InvivoGen, cat. ant-pm-2), 10% defined fetal bovine serum, heat inactivated (HyClone Laboratories Inc., cat. SH30070.03HI), 1.25 mM N-Acetyl-L-cysteine (Sigma-Aldrich, cat. A9165), 10 mM nicotinamide (Sigma-Aldrich, cat. N0636), 1X B-27 supplement (Thermo Fisher Scientific, cat. 17504044), 1X N-2 supplement (Thermo Fisher Scientific, cat. 17502048), and 10 microM Y-27632 dihydrochloride (Tocris Bioscience, cat. 1254). The 876862-298-R-J1-PDC was cultured in 6E media, which includes all 6B/Colon 1A media components plus 50% L-WRN conditioned media (ATCC, cat. CRL-3276), 50 ng/mL recombinant human EGF recombinant protein (hEGF; Thermo Fisher Scientific, cat. PHG0311), 10 ng/mL recombinant human fibroblast growth factor 10 (hGFG-10; PeproTech, cat. 100-26), 1 ng/mL recombinant human fibroblast growth factor 2 (hFGF-2; PeproTech, cat. 100-18B), and 1 µM prostaglandin E2 (PGE2; Tocris, cat. 2296). The 227483-062-R1-J1-PDC line was cultured in Panc media, containing all 6E components except hFGF-2, with the addition of 500 nM SB-431542 (Selleckchem, cat. S1067) and 10 nM gastrin (Tocris, cat. 3006). […]

[1] = curve of first compound, second compound 0.0316 µM
[2] = curve of first compound, second compound 0.1 µM
[3] = curve of first compound, second compound 0.316 µM
[4] = curve of first compound, second compound 1 µM
[5] = curve of first compound, second compound 3.16 µM
[6] = curve of first compound, second compound 10 µM
[7] = second compound 0.0316 µM, first compound 0.0316 µM
[8] = second compound 0.0316 µM, first compound 0.1 µM
[9] = second compound 0.1 µM, first compound 0.0316 µM
[10] = second compound 0.1 µM, first compound 0.1 µM
[11] = second compound 0.316 µM, first compound 0.0316 µM
[12] = second compound 0.316 µM, first compound 0.1 µM
[13] = second compound 1 µM, first compound 0.0316 µM
[14] = second compound 1 µM, first compound 0.1 µM
[15] = second compound 3.16 µM, first compound 0.0316 µM
[16] = second compound 3.16 µM, first compound 0.1 µM
[17] = second compound 10 µM, first compound 0.0316 µM
[18] = second compound 10 µM, first compound 0.1 µM
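Further: spheroids exposed to the agents for 7 days.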

Structure (SMILES): C#Cc1c(F)ccc2cc(O)cc(-c3ncc4c(N5CC6CCC(C5)N6)nc(OCC56CCCN5CC(F)C6)nc4c3F)c12 (centres undefined) + CN1CCN(c2cc(C(=O)Nc3cc4cc(-c5cnn(C)c5)ccc4cn3)ccn2)CC1
- IC50 [1]: > 10000 nM
- IC50 [2]: > 10000 nM
- IC50 [3]: < 31.6 nM
- IC50 [4]: < 31.6 nM
- IC50 [5]: < 31.6 nM
- IC50 [6]: < 31.6 nM
- viability, T/C [7]: 92.8%
- viability, T/C [8]: 88%
- viability, T/C (second compound 0.0316 µM, first compound 0.316 µM): 109%
- viability, T/C (second compound 0.0316 µM, first compound 1 µM): 93.9%
- viability, T/C (second compound 0.0316 µM, first compound 3.16 µM): 103%
- viability, T/C (second compound 0.0316 µM, first compound 10 µM): 81.5%
- viability, T/C [9]: 80.8%
- viability, T/C [10]: 85.2%
- viability, T/C (second compound 0.1 µM, first compound 0.316 µM): 80.1%
- viability, T/C (second compound 0.1 µM, first compound 1 µM): 83.2%
- viability, T/C (second compound 0.1 µM, first compound 3.16 µM): 88.8%
- viability, T/C (second compound 0.1 µM, first compound 10 µM): 62.4%
- viability, T/C [11]: 34%
- viability, T/C [12]: 34.8%
- viability, T/C (second compound 0.316 µM, first compound 0.316 µM): 30.9%
- viability, T/C (second compound 0.316 µM, first compound 1 µM): 39.2%
- viability, T/C (second compound 0.316 µM, first compound 3.16 µM): 32.8%
- viability, T/C (second compound 0.316 µM, first compound 10 µM): 16.9%
- viability, T/C [13]: 0.24%
- viability, T/C [14]: 0.32%
- viability, T/C (second compound 1 µM, first compound 0.316 µM): 1.75%
- viability, T/C (second compound 1 µM, first compound 1 µM): 0.29%
- viability, T/C (second compound 1 µM, first compound 3.16 µM): 0.2%
- viability, T/C (second compound 1 µM, first compound 10 µM): 2.89%
- viability, T/C [15]: 0.63%
- viability, T/C [16]: 2.27%
- viability, T/C (second compound 3.16 µM, first compound 0.316 µM): 3.6%
- viability, T/C (second compound 3.16 µM, first compound 1 µM): 0.18%
- viability, T/C (second compound 3.16 µM, first compound 3.16 µM): 0.13%
- viability, T/C (second compound 3.16 µM, first compound 10 µM): 0.34%
- viability, T/C [17]: 1.89%
- viability, T/C [18]: 0.19%
- viability, T/C (second compound 10 µM, first compound 0.316 µM): 0.24%
- viability, T/C (second compound 10 µM, first compound 1 µM): 0.19%
- viability, T/C (second compound 10 µM, first compound 3.16 µM): 0.19%
- viability, T/C (second compound 10 µM, first compound 10 µM): 1.27%

Structure (SMILES): Cn1ncnc1[C@H]1c2n[nH]c(=O)c3cc(F)cc(c23)N[C@@H]1c1ccc(F)cc1 + CNC(=O)c1ccc(Nc2nc(OC3CCCC3)c3c(-c4ccc5nc(C)oc5c4)c[nH]c3n2)c(OC)c1
- IC50 [1]: 40.6 nM
- IC50 [2]: < 0.316 nM
- IC50 [3]: < 0.316 nM
- IC50 [4]: < 0.316 nM
- IC50 [5]: < 0.316 nM
- IC50 [6]: < 0.316 nM
- viability, T/C (second compound 0.0316 µM, first compound 0.000316 µM): 51.9%
- viability, T/C (second compound 0.0316 µM, first compound 0.001 µM): 51.6%
- viability, T/C (second compound 0.0316 µM, first compound 0.00316 µM): 47.8%
- viability, T/C (second compound 0.0316 µM, first compound 0.01 µM): 66.8%
- viability, T/C [7]: 51.7%
- viability, T/C [8]: 40.6%
- viability, T/C (second compound 0.1 µM, first compound 0.000316 µM): 9.58%
- viability, T/C (second compound 0.1 µM, first compound 0.001 µM): 9.68%
- viability, T/C (second compound 0.1 µM, first compound 0.00316 µM): 9.49%
- viability, T/C (second compound 0.1 µM, first compound 0.01 µM): 11.1%
- viability, T/C [9]: 9.25%
- viability, T/C [10]: 12.2%
- viability, T/C (second compound 0.316 µM, first compound 0.000316 µM): 9.25%
- viability, T/C (second compound 0.316 µM, first compound 0.001 µM): 10.3%
- viability, T/C (second compound 0.316 µM, first compound 0.00316 µM): 8.72%
- viability, T/C (second compound 0.316 µM, first compound 0.01 µM): 10.3%
- viability, T/C [11]: 9.93%
- viability, T/C [12]: 10.4%
- viability, T/C (second compound 1 µM, first compound 0.000316 µM): 9.2%
- viability, T/C (second compound 1 µM, first compound 0.001 µM): 9.13%
- viability, T/C (second compound 1 µM, first compound 0.00316 µM): 9.32%
- viability, T/C (second compound 1 µM, first compound 0.01 µM): 11.8%
- viability, T/C [13]: 9.07%
- viability, T/C [14]: 8.36%
- viability, T/C (second compound 3.16 µM, first compound 0.000316 µM): 9.59%
- viability, T/C (second compound 3.16 µM, first compound 0.001 µM): 9.4%
- viability, T/C (second compound 3.16 µM, first compound 0.00316 µM): 9.78%
- viability, T/C (second compound 3.16 µM, first compound 0.01 µM): 10%
- viability, T/C [15]: 11%
- viability, T/C [16]: 9.49%
- viability, T/C (second compound 10 µM, first compound 0.000316 µM): 11.2%
- viability, T/C (second compound 10 µM, first compound 0.001 µM): 11.1%
- viability, T/C (second compound 10 µM, first compound 0.00316 µM): 8.71%
- viability, T/C (second compound 10 µM, first compound 0.01 µM): 11.8%
- viability, T/C [17]: 12.4%
- viability, T/C [18]: 8.72%

Structure (SMILES): Cn1ncnc1[C@H]1c2n[nH]c(=O)c3cc(F)cc(c23)N[C@@H]1c1ccc(F)cc1
- viability, T/C (compound 0.000316 µM): 98.5% and 113%
- viability, T/C (compound 0.001 µM): 72.2% and 90.1%
- viability, T/C (compound 0.00316 µM): 90.6% and 93.4%
- viability, T/C (compound 0.01 µM): 84.6% and 92.9%
- viability, T/C (compound 0.0316 µM): 95.3% and 107%
- viability, T/C (compound 0.1 µM): 73% and 77.7%
- IC50 (curve of compound): > 100 nM

Further lines, with some results ahead:

- IC50 (curve of compound): > 10000 nM
Structure (SMILES): CCCS(=O)(=O)Nc1ccc(F)c(C(=O)c2c[nH]c3ncc(-c4ccc(Cl)cc4)cc23)c1F
- viability, T/C (compound 0.0316 µM): 99.5% and 99.4%
- viability, T/C (compound 0.1 µM): 91.2% and 92.6%
- viability, T/C (compound 0.316 µM): 92.8% and 95.1%
- viability, T/C (compound 1 µM): 91.2% and 83.6%
- viability, T/C (compound 3.16 µM): 92.6% and 94.8%
- viability, T/C (compound 10 µM): 82.3% and 109%

- IC50 (curve of compound): 8470 nM and 4400 nM
Structure (SMILES): COC1C=CCC(C)C(C)S(=O)(=O)NC(=O)c2ccc3c(c2)N(CC2CCC21)CC1(CCCc2cc(Cl)ccc21)CO3 (centres undefined)
- viability, T/C (compound 0.0316 µM): 93.3% and 98.1%
- viability, T/C (compound 0.1 µM): 90.6% and 96.7%
- viability, T/C (compound 0.316 µM): 101% and 103%
- viability, T/C (compound 1 µM): 96.7% and 93.2%
- viability, T/C (compound 3.16 µM): 77.2% and 69.3%
